Experimental data reported in ChEMBL document CHEMBL5260828, “Amphiphilic glycoconjugates as potential anti-cancer chemotherapeutics” (Eur J Med Chem, 2018).
Values after ≈ are worked out from the molar mass of the structure shown. Values belong to the compound of their own block, whether it stands above or below them.

How the values were obtained:
[1] = tested on: HepG2; experiment: Cytotoxicity against human HepG2 cells assessed as cell growth inhibition by MTT colorimetric assay; type: functional, cell-based
[2] = tested on: Hep 3B2; experiment: Cytotoxicity against human Hep3B cells assessed as cell growth inhibition by MTT colorimetric assay; type: functional, cell-based
[3] = tested on: MDA-MB-231; experiment: Cytotoxicity against human MDA-MB-231 cells assessed as cell growth inhibition by MTT colorimetric assay; type: functional, cell-based
[4] = tested on: Ca9-22; experiment: Cytotoxicity against human Ca9-22 cells assessed as cell growth inhibition by MTT colorimetric assay; type: functional, cell-based
[5] = tested on: HeLa; experiment: Antiproliferative activity against human HeLa cells assessed as inhibition of cell growth incubated for 24 hrs by MTT assay; type: functional, cell-based
[6] = tested on: MIA PaCa-2; experiment: Cytotoxicity against human MIA PaCa-2 cells assessed as inhibition of cell growth incubated for 72 hrs by CellTiter 96 aqueous one solution assay; type: functional, cell-based; conditions: MIA PaCa-2, 72 h
[7] = tested on: PK9; experiment: Cytotoxicity against human PK9 cells assessed as inhibition of cell growth incubated for 72 hrs by CellTiter 96 aqueous one solution assay; type: functional, cell-based; conditions: PK9, 72 h
[8] = tested on: AGS; experiment: Antiproliferative activity against human AGS cells assessed as inhibition of cell growth incubated for 48 hrs by MTT assay; type: functional, cell-based
[9] = tested on: SF-268; experiment: Antiproliferative activity against human SF-268 cells assessed as inhibition of cell growth incubated for 48 hrs by MTT assay; type: functional, cell-based
[10] = tested on: HCT-116; experiment: Antiproliferative activity against human HCT-116 cells assessed as inhibition of cell growth incubated for 48 hrs by MTT assay; type: functional, cell-based
[11] = tested on: NCI-H460; experiment: Antiproliferative activity against human NCI-H460 cells assessed as inhibition of cell growth incubated for 48 hrs by MTT assay; type: functional, cell-based
[12] = tested on: MCF7; experiment: Antiproliferative activity against human MCF7 cells assessed as inhibition of cell growth incubated for 48 hrs by MTT assay; type: functional, cell-based
[13] = molecular target: RAC-alpha serine/threonine-protein kinase (Homo sapiens, UniProt P31749); experiment: Inhibition of AKT1 (unknown origin) in presence of ATP by ELISA
Chain of RAC-alpha serine/threonine-protein kinase (P31749 whole entry): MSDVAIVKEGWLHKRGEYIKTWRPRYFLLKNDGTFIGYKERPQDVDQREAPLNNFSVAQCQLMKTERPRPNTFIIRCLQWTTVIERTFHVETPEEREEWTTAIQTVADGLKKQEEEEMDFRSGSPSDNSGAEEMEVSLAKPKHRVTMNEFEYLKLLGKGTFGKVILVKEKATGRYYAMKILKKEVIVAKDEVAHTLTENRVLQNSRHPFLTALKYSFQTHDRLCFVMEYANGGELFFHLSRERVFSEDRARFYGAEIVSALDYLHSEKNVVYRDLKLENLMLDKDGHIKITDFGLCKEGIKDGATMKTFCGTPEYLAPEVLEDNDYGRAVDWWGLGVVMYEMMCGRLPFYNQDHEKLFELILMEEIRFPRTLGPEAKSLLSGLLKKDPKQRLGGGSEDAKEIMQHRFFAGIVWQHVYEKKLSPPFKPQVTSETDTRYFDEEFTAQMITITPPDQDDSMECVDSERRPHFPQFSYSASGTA

[14] = tested on: IGROV-1; experiment: Antiproliferative activity against human IGROV-1 cells assessed as inhibition of cell growth incubated for 72 hrs by Coulter counter assay; type: functional, cell-based; conditions: IGROV-1, 72 h
[15] = tested on: IGROV-1; experiment: Antiproliferative activity against human IGROV-1 cells assessed as inhibition of cell growth incubated for 72 hrs in serum-free medium by Coulter counter assay; type: functional, cell-based; conditions: IGROV-1, 72 h
[16] = tested on: HeLa S3; experiment: Cytotoxicity against human HeLa S3 cells assessed as inhibition of cell proliferation incubated for 72 hrs by MTT assay; type: functional, cell-based; conditions: HeLa S3, 72 h
[17] = tested on: SMMC-7721; experiment: Cytotoxicity against human SMMC-7721 cells assessed as cell growth inhibition incubated for 48 hrs by MTT assay; type: functional, cell-based; conditions: SMMC-7721, 48 h
[18] = tested on: HeLa; experiment: Cytotoxicity against human HeLa cells assessed as cell growth inhibition incubated for 48 hrs by MTT assay; type: functional, cell-based
[19] = tested on: B16; experiment: Cytotoxicity against mouse B16 cells assessed as cell growth inhibition incubated for 48 hrs by MTT assay; type: functional, cell-based; conditions: B16, 48 h
[20] = tested on: HL-60; experiment: Cytotoxicity against human HL-60 cells assessed as inhibition of cell proliferation incubated for 72 hrs by MTT assay; type: functional, cell-based; conditions: HL-60, 72 h
[21] = tested on: Lung NSCLC-N6 cell-line; experiment: Cytotoxicity against human Lung NSCLC-N6 cell-line by MTT colorimetric assay; type: functional, cell-based
[22] = tested on: HCT-116; experiment: Cytotoxicity against human HCT-116 cells assessed as cell growth inhibition incubated for 72 hrs by celltiter 96 aqueous cell proliferation assay; type: functional, cell-based; conditions: HCT-116, 72 h
[23] = tested on: HeLa S3; experiment: Cytotoxicity against human HeLa S3 cells; type: functional, cell-based
[24] = tested on: P388; experiment: Cytotoxicity against mouse P388 cells; type: functional, cell-based; conditions: p388
[25] = tested on: B16; experiment: Cytotoxicity against mouse B16 cells; type: functional, cell-based; conditions: b16
[26] = tested on: NCI-H69; experiment: Cytotoxicity against human NCI-H69 cells; type: functional, cell-based
[27] = tested on: P388/ADM; experiment: Cytotoxicity against mouse P388/ADM cells; type: functional, cell-based
[28] = tested on: NUGC-3; experiment: Cytotoxicity against human NUGC-3 cells assessed as cell growth inhibition incubated for 30 mins by MTT assay; type: functional, cell-based; conditions: NUGC-3, 0.5 h

Structure (SMILES): CCCCCCCCCCCCOC[C@@H](COC(C)=O)O[C@@H]1OC[C@@H](O)[C@@H](O)[C@@H]1O
IC50 [1]: 9.2 µg/mL (≈ 21.2 µM)
IC50 [2]: 9.2 µg/mL (≈ 21.2 µM)
IC50 [3]: 9.2 µg/mL (≈ 21.2 µM)
IC50 [4]: 9.2 µg/mL (≈ 21.2 µM)

IC50 [5]: > 100 µg/mL
Structure (SMILES): CCCCCCCCCCCCCCCCCCCCCCCCCCCC(=O)OC[C@H](CC[C@@H]1O[C@H](CO)[C@@H](O)[C@H](O)[C@H]1O)OC(=O)CCCCCCCCCCCCCCCCCCCCCCCCCCC

Structure (SMILES): CCCCCCCC/C=C\CCCCCCCCNC(=O)[C@H]1[C@@H]2OC(C)(C)O[C@@H]2[C@](C)(CO)N1CCCC
IC50 [6]: 3.6 µM
IC50 [7]: 17 µM

IC50 [8]: 0.039 µg/mL (≈ 0.0518 µM)
IC50 [10]: 0.039 µg/mL (≈ 0.0518 µM)
IC50 [11]: 0.039 µg/mL (≈ 0.0518 µM)
IC50 [12]: 0.039 µg/mL (≈ 0.0518 µM)
Structure (SMILES): CC/C=C\C/C=C\C/C=C\CCCCCCCC(=O)OCC(CO[C@@H]1O[C@H](CO)[C@H](O)[C@H](O)[C@H]1O)OC(=O)CCCCCCCCCCCCCCC (stereo partly specified)
IC50 [9]: 0.039 µg/mL (≈ 0.0518 µM)

IC50 [13]: 30.8 µM
Structure (SMILES): CCCCCCCCCC(=O)OCC(COC(=O)CCCCCCCCC)O[C@@H]1O[C@H](C(=O)O)[C@@H](O)[C@H](O)[C@H]1O
IC50 [14]: 156 µM
IC50 [15]: 9.4 µM

Structure (SMILES): C=C1[C@@H](OC)C/C=C/[C@@H](O[C@@H]2O[C@H](CO)[C@@H](O)[C@H](OC)[C@H]2O)CC(=O)O[C@@H](/C=C(/C)C/C=C/C)C/C=C/C=C/C[C@H](C)[C@@H]1OO
IC50 [16]: > 10 µM

IC50 [8]: 0.039 µg/mL (≈ 0.0503 µM)
IC50 [10]: 0.039 µg/mL (≈ 0.0503 µM)
IC50 [11]: 0.039 µg/mL (≈ 0.0503 µM)
IC50 [12]: 0.039 µg/mL (≈ 0.0503 µM)
Structure (SMILES): CC/C=C\C/C=C\C/C=C\CCCCCCCC(=O)OCC(CO[C@@H]1O[C@H](CO)[C@H](O)[C@H](O)[C@H]1O)OC(=O)CCCCCCC/C=C\C/C=C\C/C=C\CC (stereo partly specified)
IC50 [9]: 0.039 µg/mL (≈ 0.0503 µM)

Structure (SMILES): CC/C=C\C/C=C\C/C=C\CCCCCCCC(=O)OCC(CO[C@H]1O[C@H](CN)[C@@H](O)[C@H](O)[C@H]1O)OC(=O)CCCCCCC/C=C\C/C=C\C/C=C\CC (stereo partly specified)
IC50 [17]: 70.3 µg/mL (≈ 90.8 µM)
IC50 [18]: 70.3 µg/mL (≈ 90.8 µM)
IC50 [19]: 70.3 µg/mL (≈ 90.8 µM)

Structure (SMILES): C/C=C/C/C(C)=C\[C@H]1C/C=C/C=C/C[C@H](C)/C=C(\C)[C@@H](OC)C[C@@H](O)C[C@@H](O[C@@H]2O[C@H](CO)[C@@H](O)[C@H](OC)[C@H]2O)CC(=O)O1
IC50 [20]: 0.04 µM
IC50 [16]: 6.5 µM

Structure (SMILES): CC/C=C\C/C=C\C/C=C\CCCCCCCC(=O)OCC(CO[C@H]1O[C@H](CNC(=O)CCc2ccc(O)cc2)[C@@H](O)[C@H](O)[C@H]1O)OC(=O)CCCCCCC/C=C\C/C=C\C/C=C\CC (stereo partly specified)
IC50 [17]: 70.3 µg/mL (≈ 76.2 µM)
IC50 [18]: 70.3 µg/mL (≈ 76.2 µM)
IC50 [19]: 70.3 µg/mL (≈ 76.2 µM)

Structure (SMILES): C/C=C/C/C(C)=C\[C@H]1C/C=C/C=C/C[C@H](C)/C=C(\C)[C@@H](OC)C[C@@H](O)C[C@@H](O)CC(=O)O1
IC50 [20]: 0.012 µM
IC50 [16]: 0.039 µM

Structure (SMILES): CO[C@@H]1/C=C(\C)C[C@H](/C=C/C#C[C@H]2C[C@@H]2Cl)OC(=O)[C@@H](C)[C@]2(O)C[C@H](O[C@@H]3O[C@@H](C)[C@H](O[C@@H]4O[C@@H](C)[C@H](O)[C@@](C)(O)[C@H]4O)[C@@](C)(O)[C@H]3OC)[C@@H](C)[C@@H](O2)[C@@H]1C
IC50 [21]: 30 µg/mL (≈ 37.4 µM)
IC50 [22]: 2 µM

IC50 [5]: 57 µg/mL (≈ 92.4 µM)
Structure (SMILES): CCCCCCCCCCCCCC(=O)OCC(O)C[C@@H]1O[C@H](COC(C)=O)[C@H](OC(C)=O)[C@H](OC(C)=O)[C@H]1OC(C)=O (stereo partly specified)

IC50 [5]: > 100 µg/mL
Structure (SMILES): CCCCCCCCCCCCCCCCCCCCCCCCCCCC(=O)OC[C@H](CC[C@@H]1O[C@H](CO)[C@H](O)[C@H](O)[C@H]1O)OC(=O)CCCCCCCCCCCCCCCCCCCCCCCCCCC

Structure (SMILES): C/C=C(\C)C(O[C@@H]1O[C@H](CO)[C@@H](O)[C@H](O)[C@H]1O)C(C)/C=C(C)/C=C/CC(C)(O)/C=C/c1nc(OC)c(OC)c(O)c1C (stereo in doubt; 283)
IC50 ([23]; Homo sapiens, HeLa S3, read-out: IC50): 0.62 µg/mL (≈ 1.04 µM)
IC50 [24]: 0.58 µg/mL (≈ 0.977 µM)
IC50 [25]: 0.32 µg/mL (≈ 0.539 µM)
IC50 ([26]; Homo sapiens, NCI-H69, read-out: IC50): 0.47 µg/mL (≈ 0.792 µM)
IC50 ([27]; Mus musculus, P388/ADM, read-out: IC50): 4.3 µg/mL (≈ 7.24 µM)

Structure (SMILES): C/C=C(\C)C(O[C@@H]1O[C@H](CO)[C@@H](O)[C@H](O)[C@H]1O)C(C)/C=C(C)/C=C/CC(C)(O)/C=C/c1nc(OC)c(OC)c(O)c1C (stereo in doubt; 284)
IC50 ([23]; hela s3): 0.98 µg/mL (≈ 1.65 µM)
IC50 [24]: 2.5 µg/mL (≈ 4.21 µM)
IC50 [25]: 0.67 µg/mL (≈ 1.13 µM)
IC50 ([26]; nci-h69): 0.83 µg/mL (≈ 1.4 µM)
IC50 ([27]; p388/adm): 4.2 µg/mL (≈ 7.07 µM)

Structure (SMILES): CCCCCCCCCCCCCCCCCC(=O)OCC(O)CO (stereo unspecified) [GLYCERYL MONOSTEARATE]
IC50 [28]: 100 µM
